System: Elongator complex protein 1 (ELP1, also referred to as IKBKAP)
Assay: IKBKAP-HTRF Assay
Assay type: cell-based, human
Conditions: FD patient-derived fibroblasts GM04589, 48 hours incubation; for EC2x for IKBKAP protein expression (concentration producing two times the amount of IKBKAP protein vs DMSO vehicle control): 7-point concentration curve; for MFI (maximum fold increase in IKBKAP protein abundance relative to the vehicle control): HTRF
In short: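 FD patient cells in DMEM-10% FBS were treated 48 hours at 37 °C with a 7-point, 3.16-fold compound series in triplicate, then lysed. IKBKAP was quantified by sandwich HTRF with two anti-IKAP antibodies, incubated overnight at 4 °C and read at 665/620 nm. MFI is AF relative to vehicle, and EC2× is the concentration doubling IKBKAP versus DMSO.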

| Structure (SMILES) | EC2x for IKBKAP protein expression (concentration producing two times the amount of IKBKAP protein vs DMSO vehicle control) | MFI (maximum fold increase in IKBKAP protein abundance relative to the vehicle control) |
| --- | --- | --- |
| Cc1c(C[C@@H](N)CO)sc2c(NCc3cccs3)nc(Cl)nc12 [Cpd 56, (2R)-2-amino-3-(2-chloro-7-methyl-4-{[(thiophen-2-yl)methyl]amino}thieno[3,2-d]pyrimidin-6-yl)propan-l-ol] | ***** (<0.005 μM) | ***** (>4.9) |
| C[C@H](N)c1sc2c(NCc3ccco3)nc(-c3ccccc3)nc2c1-c1ccccc1 [Cpd 61, 6-[(1S)-1-aminoethyl]-N-[(furan-2-yl)methyl]-2,7-diphenylthieno[3,2-d]pyrimidin-4-amine] | * (EC2×>1 μM) | * (MFI<1.9) |
| Cc1c(CCCN)sc2c(NCc3ccco3)nc(Cl)nc12 [Cpd 67, 6-(3-aminopropyl)-2-chloro-N-[(furan-2-yl)methyl]-7-methylthieno[3,2-d]pyrimidin-4-amine] | * (EC2×>1 μM) | * (MFI<1.9) |
| Cc1c(C[C@H](C)N)sc2c(NCc3ncc(F)s3)nc(Cl)nc12 [Cpd 93, 6-[(2S)-2-aminopropyl]-2-chloro-N-[(5-fluoro-1,3-thiazol-2-yl)methyl]-7-methylthieno[3,2-d]pyrimidin-4-amine] | **** (between >0.005 μM and ≤0.02 μM) | ***** (>4.9) |
| C[C@H](N)Cc1sc2c(NCc3ccco3)nc(Cl)nc2c1Br [Cpd 40, 6-[(2S)-2-aminopropyl]-7-bromo-2-chloro-N-[(furan-2-yl)methyl]thieno[3,2-d]pyrimidin-4-amine] | ***** (<0.005 μM) | ***** (>4.9) |
| Clc1nc(NCc2nccs2)c2sccc2n1 [Cpd 96, 2-chloro-N-[(1,3-thiazol-2-yl)methyl]thieno[3,2-d]pyrimidin-4-amine] | * (EC2×>1 μM) | ** (between >1.9 and <2.9) |
| Cc1c(CCCO)sc2c(NCc3ccco3)nc(Cl)nc12 [Cpd 63, 3-(2-chloro-4-{[(furan-2-yl)methyl]amino}-7-methylthieno[3,2-d]pyrimidin-6-yl)propan-l-ol] | * (EC2×>1 μM) | * (MFI<1.9) |
| Cc1c(C[C@H](C)N)sc2c(NCc3ncc[nH]3)nc(Cl)nc12 [Cpd 73, 6-[(2S)-2-aminopropyl]-2-chloro-N-[(1H-imidazol-2-yl)methyl]-7-methylthieno[3,2-d]pyrimidin-4-amine] | *** (between >0.02 μM and ≤0.5 μM) | ** (between >1.9 and <2.9) |
| CC[C@H](N)Cc1sc2c(NCc3ccco3)nc(Cl)nc2c1C [Cpd 13, 6-[(2S)-2-aminobutyl]-2-chloro-N-[(furan-2-yl)methyl]-7-methylthieno[3,2-d]pyrimidin-4-amine] | ***** (<0.005 μM) | ***** (>4.9) |

Reference: patent publication US20230057568A1, “COMPOUNDS FOR TREATING FAMILIAL DYSAUTONOMIA” (PTC THERAPEUTICS, INC., priority 2019, published 2023)
